What was measured:
Format in all cases: in vivo
[1] = test system: barnyardgrass (Echinochloa crus-galli); experiment: Test G Pre-Emergence Protocol; settings: Echinochloa crus-galli, pre-emergence, 312 h, evaluated after 13 days
Outline: (§1)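 Glasshouse pre-emergence test: soil-sown seeds, sprayed after 1 d at 15.625, 62.5 or 250 g/ha. Conditions 24/16° C day/night, 14 h light, 65% humidity, watering twice daily. Rating 13 d post-spray (100 = total damage).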

[2] = test system: corn (Zea mays); experiment: Test G Pre-Emergence Protocol; settings: Zea mays, pre-emergence, 312 h, evaluated after 13 days
Outline: as §1

[3] = test system: giant foxtail (Setaria faberi); experiment: Test G Pre-Emergence Protocol; settings: Setaria faberi, pre-emergence, 312 h, evaluated after 13 days
Outline: as §1

[4] = test system: ivy-leaved morning glory (Ipomoea hederacea); experiment: Test G Pre-Emergence Protocol; settings: Ipomoea, pre-emergence, 312 h, evaluated after 13 days
Outline: as §1

[5] = test system: redroot pigweed (Amaranthus retroflexus); experiment: Test G Pre-Emergence Protocol; settings: Amaranthus retroflexus, pre-emergence, 312 h, evaluated after 13 days
Outline: as §1

[6] = test system: velvetleaf (Abutilon theophrasti); experiment: Test G Pre-Emergence Protocol; settings: Abutilon theophrasti, pre-emergence, 312 h, evaluated after 13 days
Outline: as §1

[7] = test system: barnyardgrass (Echinochloa crus-galli); experiment: Test G Post-Emergence Protocol; settings: Echinochloa crus-galli, post-emergence, 312 h, read-out: Barnyardgrass damage rating
Outline: (§2)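 Eight days post-sowing, plants received a spray of test compound (acetone/water 50:50, 0.5% Tween 20) at 15.625, 62.5 or 250 g/ha. Glasshouse regime thereafter: 24/16 °C, 14 h light, 65% humidity. Assessment after 13 days on a 0–100 damage scale.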

[8] = test system: corn (Zea mays); experiment: Test G Post-Emergence Protocol; settings: Zea mays, post-emergence, 312 h, read-out: Corn damage rating
Outline: as §2

[9] = test system: giant foxtail (Setaria faberi); experiment: Test G Post-Emergence Protocol; settings: Setaria faberi, post-emergence, 312 h, read-out: Foxtail, Giant damage rating
Outline: as §2

[10] = test system: ivy-leaved morning glory (Ipomoea hederacea); experiment: Test G Post-Emergence Protocol; settings: Ipomoea, post-emergence, 312 h, read-out: Morningglory, Ivy-leaved damage rating
Outline: as §2

[11] = test system: redroot pigweed (Amaranthus retroflexus); experiment: Test G Post-Emergence Protocol; settings: Amaranthus retroflexus, post-emergence, 312 h, read-out: Pigweed, Redroot damage rating
Outline: as §2

[12] = test system: velvetleaf (Abutilon theophrasti); experiment: Test G Post-Emergence Protocol; settings: Abutilon theophrasti, post-emergence, 312 h, read-out: Velvetleaf damage rating
Outline: as §2

[13] = 15.625 g ai/ha, evaluated after 13 days (100=total damage to plant; 0=no damage to plant)
[14] = 62.5 g ai/ha, evaluated after 13 days, 100=total damage to plant, 0=no damage to plant
[15] = 250 g ai/ha, evaluated after 13 days, 100=total damage to plant, 0=no damage to plant

CCOc1c(Cl)cc(C2CN(C)C(=O)C2C(=O)Nc2cccc(F)c2F)cc1OC (stereo not drawn) [Compound 1721]
40%: pest or weed control at 62.5 g/ha [10, 14]
50%: pest or weed control at 62.5 g/ha ([1]; 62.5 g ai/ha, 100=total damage to plant, 0=no damage to plant, read-out: Barnyardgrass damage rating) | pest or weed control at 62.5 g/ha [9, 14]
80%: pest or weed control at 250 g/ha ([1]; 250 g ai/ha, read-out: Barnyardgrass damage rating (100=total damage to plant; 0=no damage to plant)) | pest or weed control at 250 g/ha [7, 15] | pest or weed control at 250 g/ha [9, 15]
0%: pest or weed control at 15.625 g/ha ([1]; 15.625 g ai/ha, read-out: Barnyardgrass damage rating (100=total damage to plant; 0=no damage to plant)) | plant injury at 62.5 g/ha ([2]; 62.5 g ai/ha, 100=total damage to plant, 0=no damage to plant, read-out: Corn damage rating) | plant injury at 250 g/ha ([2]; 250 g ai/ha, read-out: Corn damage rating (100=total damage to plant; 0=no damage to plant)) | pest or weed control at 15.625 g/ha ([4]; 15.625 g ai/ha, read-out: Morningglory, Ivy-leaved damage rating (100=total damage to plant; 0=no damage to plant)) | pest or weed control at 62.5 g/ha ([4]; 62.5 g ai/ha, 100=total damage to plant, 0=no damage to plant, read-out: Morningglory, Ivy-leaved damage rating) | pest or weed control at 250 g/ha ([4]; 250 g ai/ha, read-out: Morningglory, Ivy-leaved damage rating (100=total damage to plant; 0=no damage to plant)) | pest or weed control at 15.625 g/ha ([5]; 15.625 g ai/ha, read-out: Pigweed, Redroot damage rating (100=total damage to plant; 0=no damage to plant)) | pest or weed control at 62.5 g/ha ([5]; 62.5 g ai/ha, 100=total damage to plant, 0=no damage to plant, read-out: Pigweed, Redroot damage rating) | pest or weed control at 250 g/ha ([5]; 250 g ai/ha, read-out: Pigweed, Redroot damage rating (100=total damage to plant; 0=no damage to plant)) | pest or weed control at 15.625 g/ha ([6]; 15.625 g ai/ha, read-out: Velvetleaf damage rating (100=total damage to plant; 0=no damage to plant)) | pest or weed control at 62.5 g/ha ([6]; 62.5 g ai/ha, 100=total damage to plant, 0=no damage to plant, read-out: Velvetleaf damage rating) | pest or weed control at 250 g/ha ([6]; 250 g ai/ha, read-out: Velvetleaf damage rating (100=total damage to plant; 0=no damage to plant)) | pest or weed control at 15.625 g/ha [7, 13] | plant injury at 15.625 g/ha [8, 13] | pest or weed control at 15.625 g/ha [9, 13] | pest or weed control at 15.625 g/ha [10, 13] | pest or weed control at 15.625 g/ha [11, 13] | pest or weed control at 62.5 g/ha [11, 14] | pest or weed control at 250 g/ha [11, 15] | pest or weed control at 15.625 g/ha [12, 13] | pest or weed control at 62.5 g/ha [12, 14] | pest or weed control at 250 g/ha [12, 15]
60%: pest or weed control at 62.5 g/ha ([3]; 62.5 g ai/ha, 100=total damage to plant, 0=no damage to plant, read-out: Foxtail, Giant damage rating)
70%: pest or weed control at 250 g/ha [10, 15]
10%: plant injury at 15.625 g/ha ([2]; 15.625 g ai/ha, read-out: Corn damage rating (100=total damage to plant; 0=no damage to plant)) | plant injury at 62.5 g/ha [8, 14] | plant injury at 250 g/ha [8, 15]
30%: pest or weed control at 15.625 g/ha ([3]; 15.625 g ai/ha, read-out: Foxtail, Giant damage rating (100=total damage to plant; 0=no damage to plant)) | pest or weed control at 62.5 g/ha [7, 14]
90%: pest or weed control at 250 g/ha ([3]; 250 g ai/ha, read-out: Foxtail, Giant damage rating (100=total damage to plant; 0=no damage to plant))
